Test results from patent publication US9493441B2, “Acyclic cyanoethylpyrazoles as janus kinase inhibitors” (Merck Sharp & Dohme Corp., priority 2011, dated 2016).
Read-outs that look alike come from different tables or passages of the source.

Tests used:
JAK2 = JAK2 (Homo sapiens (Human), UniProt O60674); assay: Jak biochemical HTRF assay, JAK2
JAK1 = JAK1 (Homo sapiens (Human), UniProt P23458); assay: Jak biochemical HTRF assay, JAK1
[1] = JAK2 IC50 (nM), recombinant GST-tagged catalytic domain, [ATP] […]
[2] = JAK1 IC50 (nM), recombinant GST-tagged catalytic domain, [ATP] 31.8 μM
[3] = read-out: JAK2 IC50, recombinant GST-tagged catalytic domain, [ATP] […]
[4] = read-out: JAK1 IC50, recombinant GST-tagged catalytic domain, [ATP] 31.8 μM

JAK1, sequence (P23458 875-1153): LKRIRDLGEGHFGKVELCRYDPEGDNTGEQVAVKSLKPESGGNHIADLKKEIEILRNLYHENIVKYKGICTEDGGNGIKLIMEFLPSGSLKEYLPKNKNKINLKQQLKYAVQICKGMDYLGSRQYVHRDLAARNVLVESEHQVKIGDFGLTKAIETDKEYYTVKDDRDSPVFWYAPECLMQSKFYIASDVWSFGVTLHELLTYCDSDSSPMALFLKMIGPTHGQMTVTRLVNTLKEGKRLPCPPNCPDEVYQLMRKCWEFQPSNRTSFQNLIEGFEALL
JAK2, sequence (O60674 849-1124): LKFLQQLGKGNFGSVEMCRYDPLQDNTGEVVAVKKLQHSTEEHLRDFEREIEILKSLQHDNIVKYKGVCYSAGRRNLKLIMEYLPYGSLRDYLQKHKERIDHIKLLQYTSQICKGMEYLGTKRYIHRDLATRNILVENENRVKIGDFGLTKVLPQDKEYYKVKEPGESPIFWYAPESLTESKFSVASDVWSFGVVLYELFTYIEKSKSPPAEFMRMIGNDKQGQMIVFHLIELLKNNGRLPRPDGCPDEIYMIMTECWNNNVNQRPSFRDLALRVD

Row | IC50 (JAK2; [1]) [nM] | IC50 (JAK1; [2]) [nM] | IC50 (JAK2; [3]) [nM] | IC50 (JAK1; [4]) [nM] | Compound
1 | 413 | 195 | – | – | CC(CC#N)(C1CC1)n1cc(C(N)=O)c(Nc2ccccc2)n1 (stereo not shown) [Example 1-18, 1-(2-cyano-1-cyclopropyl-1-methylethyl)-3-(phenylamino)-1H-pyrazole-4-carboxamide]
2 | 23 | 1 | – | – | CN1Cc2cc(Nc3nn(C(CC#N)C4CC4)cc3C(N)=O)ccc2C1=O (stereo not shown) [Example 4-33, 1-(2-cyano-1-cyclopropylethyl)-3-[(2-methyl-1-oxo-2,3-dihydro-1H-isoindol-5-yl)amino]-1H-pyrazole-4-carboxamide]
3 | 394 | 82 | – | – | N#CCC(C1CC1)n1cc(C(N)=O)c(Nc2cccc(C(F)(F)F)c2)n1 (stereo not shown) [Example 4-4, 1-(2-cyano-1-cyclopropylethyl)-3-{[3-(trifluoromethyl)phenyl]amino}-1H-pyrazole-4-carboxamide]
4 | 15 | 1 | – | – | N#CCC(C1CC1)n1cc(C(N)=O)c(Nc2ccc3c(c2)CCS3(=O)=O)n1 (stereo not shown) [Example 5, 1-(2-Cyano-1-cyclopropylethyl)-3-[(1,1-dioxido-2,3-dihydro-1-benzothiophen-5-yl)amino]-1H-pyrazole-4-carboxamide]
5 | 17 | 2 | – | – | N#CCC(C1CC1)n1cc(C(N)=O)c(Nc2ccc3c(c2)CCC3=O)n1 (stereo not shown) [Example 4-19, 1-(2-cyano-1-cyclopropylethyl)-3-[(1-oxo-2,3-dihydro-1H-inden-5-yl)amino]-1H-pyrazole-4-carboxamide]
6 | 1030 | 108 | – | – | COCC(C)OC(=O)N1CCC([C@H](CC#N)n2cc(C(N)=O)c(Nc3ccc(F)cc3)n2)CC1 (stereo partly drawn) [Example 11-9, 2-methoxy-1-methylethyl 4-[(1S)-1-{4-carbamoyl-3-[(4-fluorophenyl)amino]-1H-pyrazol-1-yl}-2-cyanoethyl]piperidine-1-carboxylate]
7 | 1040 | 46 | – | – | CC(OC(=O)N1CCC([C@H](CC#N)n2cc(C(N)=O)c(Nc3ccc(F)cc3)n2)CC1)C(F)(F)F (stereo partly drawn) [Example 11-11, 2,2,2-trifluoro-1-methylethyl 4-[(1S)-1-{4-carbamoyl-3-[(4-fluorophenyl)amino]-1H-pyrazol-1-yl}-2-cyanoethyl]piperidine-1-carboxylate]
8 | – | – | 578 | 43 | CC[C@H](CC#N)n1cc(C(N)=O)c(Nc2ccccc2)n1 (single isomer, unassigned) [Example 16-1, 1-[(1R or 1S)-1-(cyanomethyl)propyl]-3-(phenylamino)-1H-pyrazole-4-carboxamide]
9 | 79 | 10 | – | – | N#CCC(C1CC1)n1cc(C(N)=O)c(Nc2ccccc2)n1 (stereo not shown) [Example 1-1, 1-(2-Cyano-1-cyclopropylethyl)-3-(phenylamino)-1H-pyrazole-4-carboxamide]
10 | – | – | 55 | 5 | 1-[(1R or 1S)-2-cyano-1-cyclopropylethyl]-3-{[4-(methylsulfonyl)phenyl]amino}-1H-pyrazole-4-carboxamide [Example 14-2]
11 | 1500 | 718 | – | – | CC(C)(C)COC(=O)N1CCC([C@H](CC#N)n2cc(C(N)=O)c(Nc3ccc(F)cc3)n2)CC1 (single isomer, unassigned) [Example 12-2, 2,2-dimethylpropyl 4-[(1S or 1R)-1-{4-carbamoyl-3-[(4-fluorophenyl)amino]-1H-pyrazol-1-yl}-2-cyanoethyl]piperidine-1-carboxylate]
12 | – | – | 19 | 2 | Cc1noc(-c2ccc(Nc3nn([C@H](CC#N)C4CC4)cc3C(N)=O)cc2)n1 (single isomer, unassigned) [Example 18-1, 1-[(1R or 1S)-2-cyano-1-cyclopropylethyl]-3-{[4-(3-methyl-1,2,4-oxadiazol-5-yl)phenyl]amino}-1H-pyrazole-4-carboxamide]
13 | 226 | 15 | – | – | CN1C(=O)c2ccc(Nc3nn(C(CC#N)C4CC4)cc3C(N)=O)cc2C1(C)C (stereo not shown) [Example 4-30, 1-(2-cyano-1-cyclopropylethyl)-3-[(2,3,3-trimethyl-1-oxo-2,3-dihydro-1H-isoindol-5-yl)amino]-1H-pyrazole-4-carboxamide]
14 | 64 | 19 | – | – | N#CCC(C1CC1)n1cc(C(N)=O)c(Nc2cccc(C#N)c2)n1 (stereo not shown) [Example 4-16, 1-(2-cyano-1-cyclopropylethyl)-3-[(3-cyanophenyl)amino]-1H-pyrazole-4-carboxamide]
15 | 20 | 2 | – | – | CC(C)(C)OC(=O)CN1Cc2cc(Nc3nn(C(CC#N)C4CC4)cc3C(N)=O)ccc2C1=O (stereo not shown) [Example 4-34, tert-butyl (5-{[4-carbamoyl-1-(2-cyano-1-cyclopropylethyl)-1H-pyrazol-3-yl]amino}-1-oxo-1,3-dihydro-2H-isoindol-2-yl)acetate]
16 | 1500 | 628 | – | – | N#CC[C@@H](C1CCN(C(=O)OC2CCCCC2)CC1)n1cc(C(N)=O)c(Nc2ccc(F)cc2)n1 (single isomer, unassigned) [Example 12-5, cyclohexyl 4-[(1S or 1R)-1-{4-carbamoyl-3-[(4-fluorophenyl)amino]-1H-pyrazol-1-yl}-2-cyanoethyl]piperidine-1-carboxylate]
17 | 44 | 5 | – | – | N#CCC(C1CC1)n1cc(C(N)=O)c(Nc2ccnc(F)c2)n1 (stereo not shown) [Example 4-37, 1-(2-cyano-1-cyclopropylethyl)-3-[(2-fluoropyridin-4-yl)amino]-1H-pyrazole-4-carboxamide]
18 | 1050 | 44 | – | – | CCOC(=O)N1CCC([C@H](CC#N)n2cc(C(N)=O)c(Nc3ccc(F)cc3)n2)CC1 (single isomer, unassigned) [Example 12-4, ethyl 4-[(1S or 1R)-1-{4-carbamoyl-3-[(4-fluorophenyl)amino]-1H-pyrazol-1-yl}-2-cyanoethyl]piperidine-1-carboxylate]
19 | 3 | 1 | – | – | CN(C)S(=O)(=O)c1ccc(Nc2nn(C(CC#N)C3CC3)cc2C(N)=O)cc1 (stereo not shown) [Example 6-4, 1-(2-cyano-1-cyclopropylethyl)-3-{[4-(dimethylsulfamoyl)phenyl]amino}-1H-pyrazole-4-carboxamide]
20 | 1190 | 348 | – | – | N#CCCn1cc(C(N)=O)c(Nc2ccccc2)n1 [Example 1-4, 1-(2-cyanoethyl)-3-(phenylamino)-1H-pyrazole-4-carboxamide]
21 | 1500 | 220 | – | – | N#CC[C@@H](C1CCN(C(=O)OC2CCOCC2)CC1)n1cc(C(N)=O)c(Nc2ccc(F)cc2)n1 [Example 11-8, tetrahydro-2H-pyran-4-yl 4-[(1S)-1-{4-carbamoyl-3-[(4-fluorophenyl)amino]-1H-pyrazol-1-yl}-2-cyanoethyl]piperidine-1-carboxylate]
22 | 110 | 12 | – | – | N#CCC(C1CC1)n1cc(C(N)=O)c(Nc2ccc(C(F)(F)F)cc2)n1 (stereo not shown) [Example 4-3, 1-(2-cyano-1-cyclopropylethyl)-3-{[4-(trifluoromethyl)phenyl]amino}-1H-pyrazole-4-carboxamide]
23 | 75 | 11 | – | – | N#CCC(C1CC1)n1cc(C(N)=O)c(Nc2ccc(S(=O)(=O)C(F)(F)F)cc2)n1 (stereo not shown) [Example 4-28, 1-(2-cyano-1-cyclopropylethyl)-3-({4-[(trifluoromethyl)sulfonyl]phenyl}amino)-1H-pyrazole-4-carboxamide]
